Data as given in patent US11464782B2, “Method of treating pain or interstitial cystitis using indole compound” (Japan Tobacco Inc., priority 2018, dated 2022).
Read-outs that look alike come from different tables or passages of the source.

Tests used:
[1] = system: CYP-induced cystitis model mice; experiment: Mouse cyclophosphamide (CYP)-induced cystitis model, lower abdominal licking time; format: in vivo; conditions: 3, 6 or 10 mg/mL solutions at 10 mL/kg oral once per day Days 7-9
Method: The inhibitory effect of Compound A on lower abdominal licking time was evaluated in a mouse CYP-induced cystitis model. The evaluation was performed according to M. Fujita et al., Eur J Pain. 20 (2016) 79-91. Male C57BL/6J mice (Charles River Laboratories Japan, Inc.) were used as the experimental animals.
Once per day for four days (Days 1-4) 20 mg/mL of CYP (Sigma) dissolved in saline solution was intraperitoneally administered to a vehicle group, a Compound A administration group, and an anti-NGF antibody group at a volume of 10 mL/kg, and saline solution was intraperitoneally administered to a sham group at a volume of 10 mL/kg. A monohydrochloride of Compound A was dissolved in 0.5% methyl cellulose (MC) to prepare 3 mg/mL, 6 mg/mL, and 10 mg/mL solutions of Compound A. […]
The behavior of the mice was recorded for 90 minutes using a video camera prior to the initial administration of CYP (Pre) and on Day 7, Day 8, and Day 10, and the lower abdominal licking time (seconds) was measured. […] The mean values of the licking times of the individual animals were calculated for each group, and the results are shown in FIG. 11.

[2] = Trough plasma concentrations of Compound A in the human clinical study; format: in vivo; conditions: for concentration at 2 week / concentration at 4 week / concentration at 8 week / concentration at 12 week: human, plasma, oral, human plasma
Method: Compound A was evaluated in a multicenter, randomized, double-blind, placebo-controlled, parallel-group study in subjects with active rheumatoid arthritis. Subjects were randomized to receive orally placebo or an amount of monohydrochloride Compound A sufficient to provide 50 mg, 100 mg, 150 mg, or 200 mg of free form, once daily for 12 weeks.
In the human clinical study described in Example 3, blood samples were collected from subjects prior to dosing at weeks 2, 4, 8, and 12 for the quantification of plasma Compound A levels.

[3] = system: NGF-induced mechanical hyperalgesia; experiment: NGF-induced mechanical hyperalgesia in rats (pressure analgesy-meter, paw withdrawal threshold); format: in vivo, rat
Method: In order to induce a pain-related behavior (withdrawal behavior), NGF was injected into the plantar area of the left hind paw of rats and the thermal latencies/mechanical thresholds were measured. The effects of Compound A on these withdrawal behaviors were investigated. At 2 days before the injection of NGF, the thermal latencies or mechanical thresholds were measured for acclimation to the experimental environment. On the day before injection of NGF, body weights and values of the thermal latencies or mechanical thresholds were obtained. 50 μL of NGF solution was injected intraplantar to left hind paw of rats. 0.5 μg/site of NGF was selected in the evaluation of thermal stimuli and 1 μg/site was selected in that of mechanical stimuli. A monohydrochloride of Compound A (1, 3, or 10 mg/kg) was administered orally at the same time as the NGF injection. The latencies to thermal stimuli were measured at 3 and 6 hours after injection of NGF solution, and the thresholds to mechanical stimuli were measured at 1, 3 and 6 hours after injection of NGF solution. The evaluation was performed as a blind test of each group. The mechanical threshold was measured using a pressure analgesy-meter. A mechanical stimulus (pressure) increased at a constant rate was added to the hind paw, and the pressure under load until animals withdrew its hind paw or vocalization was recorded as the mechanical threshold (mmHg).

Compound: C[C@@H](C(=O)N(C)c1ccc2cc(-c3n[nH]c4c3CCC(C)(C)C4)[nH]c2c1)N1CCOCC1 [Compound A, N-[2-(6,6-dimethyl-4,5,6,7-tetrahydro-1H-indazol-3-yl)-1H-indol-6-yl]-N-methyl-(2S)-2-(morpholin-4-yl)propanamide]
- lower abdominal licking time [1]: reduced lower abdominal licking time
- Trough concentration, mean ratio relative to Compound A 50 mg QD at the same visit ([2]; 50 mg QD, 2 week): 1.00
- Trough concentration, mean ratio relative to Compound A 50 mg QD at the same visit ([2]; 50 mg QD, 4 week): 1.00
- Trough concentration, mean ratio relative to Compound A 50 mg QD at the same visit ([2]; 50 mg QD, 8 week): 1.00
- Trough concentration, mean ratio relative to Compound A 50 mg QD at the same visit ([2]; 50 mg QD, 12 week): 1.00
- dose dependence and maintenance of mean trough concentrations ([2]; 50 mg to 200 mg once daily, weeks 2-12): Mean trough concentrations increased as dose increased from 50 mg to 200 mg and trough concentrations were maintained throughout the study
- Trough concentration, mean ratio relative to Compound A 50 mg QD at the same visit ([2]; 100 mg QD, 2 week): 1.52
- Trough concentration, mean ratio relative to Compound A 50 mg QD at the same visit ([2]; 100 mg QD, 4 week): 1.60
- Trough concentration, mean ratio relative to Compound A 50 mg QD at the same visit ([2]; 100 mg QD, 8 week): 1.77
- Trough concentration, mean ratio relative to Compound A 50 mg QD at the same visit ([2]; 100 mg QD, 12 week): 1.50
- Trough concentration, mean ratio relative to Compound A 50 mg QD at the same visit ([2]; 150 mg QD, 2 week): 2.51
- Trough concentration, mean ratio relative to Compound A 50 mg QD at the same visit ([2]; 150 mg QD, 4 week): 2.28
- Trough concentration, mean ratio relative to Compound A 50 mg QD at the same visit ([2]; 150 mg QD, 8 week): 2.10
- Trough concentration, mean ratio relative to Compound A 50 mg QD at the same visit ([2]; 150 mg QD, 12 week): 2.63
- Trough concentration, mean ratio relative to Compound A 50 mg QD at the same visit ([2]; 200 mg QD, 2 week): 3.89
- Trough concentration, mean ratio relative to Compound A 50 mg QD at the same visit ([2]; 200 mg QD, 4 week): 3.33
- Trough concentration, mean ratio relative to Compound A 50 mg QD at the same visit ([2]; 200 mg QD, 8 week): 3.11
- Trough concentration, mean ratio relative to Compound A 50 mg QD at the same visit ([2]; 200 mg QD, 12 week): 2.98
- concentration at 2 week ([2]; 50 mg, 50 mg QD, 2 week, BLQ (<2.00 ng/mL) set to 0, read-out: Trough Plasma Concentrations, Min-Max): 0 to 387 ng/mL
- concentration at 2 week ([2]; 50 mg, 50 mg QD, 2 week, read-out: Trough Plasma Concentrations, Mean (SD)): 134 ng/mL
- concentration at 2 week ([2]; 50 mg, 50 mg QD, 2 week, read-out: Trough Plasma Concentrations, Median): 118 ng/mL
- concentration at 4 week ([2]; 50 mg, 50 mg QD, 4 week, BLQ (<2.00 ng/mL) set to 0, read-out: Trough Plasma Concentrations, Min-Max): 0 to 356 ng/mL
- concentration at 4 week ([2]; 50 mg, 50 mg QD, 4 week, read-out: Trough Plasma Concentrations, Mean (SD)): 135 ng/mL
- concentration at 4 week ([2]; 50 mg, 50 mg QD, 4 week, read-out: Trough Plasma Concentrations, Median): 119 ng/mL
- concentration at 8 week ([2]; 50 mg, 50 mg QD, 8 week, BLQ (<2.00 ng/mL) set to 0, read-out: Trough Plasma Concentrations, Min-Max): 0 to 436 ng/mL
- concentration at 8 week ([2]; 50 mg, 50 mg QD, 8 week, read-out: Trough Plasma Concentrations, Mean (SD)): 129 ng/mL
- concentration at 8 week ([2]; 50 mg, 50 mg QD, 8 week, read-out: Trough Plasma Concentrations, Median): 108 ng/mL
- concentration at 12 week ([2]; 50 mg, 50 mg QD, 12 week, BLQ (<2.00 ng/mL) set to 0, read-out: Trough Plasma Concentrations, Min-Max): 0 to 531 ng/mL
- concentration at 12 week ([2]; 50 mg, 50 mg QD, 12 week, read-out: Trough Plasma Concentrations, Mean (SD)): 119 ng/mL
- concentration at 12 week ([2]; 50 mg, 50 mg QD, 12 week, read-out: Trough Plasma Concentrations, Median): 100 ng/mL
- concentration at 2 week ([2]; 100 mg, 100 mg QD, 2 week, BLQ (<2.00 ng/mL) set to 0, read-out: Trough Plasma Concentrations, Min-Max): 0 to 825 ng/mL
- concentration at 2 week ([2]; 100 mg, 100 mg QD, 2 week, read-out: Trough Plasma Concentrations, Mean (SD)): 204 ng/mL
- concentration at 2 week ([2]; 100 mg, 100 mg QD, 2 week, read-out: Trough Plasma Concentrations, Median): 191 ng/mL
- concentration at 4 week ([2]; 100 mg, 100 mg QD, 4 week, BLQ (<2.00 ng/mL) set to 0, read-out: Trough Plasma Concentrations, Min-Max): 0 to 650 ng/mL
- concentration at 4 week ([2]; 100 mg, 100 mg QD, 4 week, read-out: Trough Plasma Concentrations, Mean (SD)): 216 ng/mL
- concentration at 4 week ([2]; 100 mg, 100 mg QD, 4 week, read-out: Trough Plasma Concentrations, Median): 215 ng/mL
- concentration at 8 week ([2]; 100 mg, 100 mg QD, 8 week, BLQ (<2.00 ng/mL) set to 0, read-out: Trough Plasma Concentrations, Min-Max): 0 to 785 ng/mL
- concentration at 8 week ([2]; 100 mg, 100 mg QD, 8 week, read-out: Trough Plasma Concentrations, Mean (SD)): 228 ng/mL
- concentration at 8 week ([2]; 100 mg, 100 mg QD, 8 week, read-out: Trough Plasma Concentrations, Median): 194 ng/mL
- concentration at 12 week ([2]; 100 mg, 100 mg QD, 12 week, BLQ (<2.00 ng/mL) set to 0, read-out: Trough Plasma Concentrations, Min-Max): 0 to 728 ng/mL
- concentration at 12 week ([2]; 100 mg, 100 mg QD, 12 week, read-out: Trough Plasma Concentrations, Mean (SD)): 178 ng/mL
- concentration at 12 week ([2]; 100 mg, 100 mg QD, 12 week, read-out: Trough Plasma Concentrations, Median): 175 ng/mL
- concentration at 2 week ([2]; 150 mg, 150 mg QD, 2 week, BLQ (<2.00 ng/mL) set to 0, read-out: Trough Plasma Concentrations, Min-Max): 1.47 to 1110 ng/mL
- concentration at 2 week ([2]; 150 mg, 150 mg QD, 2 week, read-out: Trough Plasma Concentrations, Mean (SD)): 335 ng/mL
- concentration at 2 week ([2]; 150 mg, 150 mg QD, 2 week, read-out: Trough Plasma Concentrations, Median): 300 ng/mL
- concentration at 4 week ([2]; 150 mg, 150 mg QD, 4 week, BLQ (<2.00 ng/mL) set to 0, read-out: Trough Plasma Concentrations, Min-Max): 0 to 748 ng/mL
- concentration at 4 week ([2]; 150 mg, 150 mg QD, 4 week, read-out: Trough Plasma Concentrations, Mean (SD)): 309 ng/mL
- concentration at 4 week ([2]; 150 mg, 150 mg QD, 4 week, read-out: Trough Plasma Concentrations, Median): 277 ng/mL
- concentration at 8 week ([2]; 150 mg, 150 mg QD, 8 week, BLQ (<2.00 ng/mL) set to 0, read-out: Trough Plasma Concentrations, Min-Max): 0 to 743 ng/mL
- concentration at 8 week ([2]; 150 mg, 150 mg QD, 8 week, read-out: Trough Plasma Concentrations, Mean (SD)): 272 ng/mL
- concentration at 8 week ([2]; 150 mg, 150 mg QD, 8 week, read-out: Trough Plasma Concentrations, Median): 277 ng/mL
- concentration at 12 week ([2]; 150 mg, 150 mg QD, 12 week, BLQ (<2.00 ng/mL) set to 0, read-out: Trough Plasma Concentrations, Min-Max): 0 to 992 ng/mL
- concentration at 12 week ([2]; 150 mg, 150 mg QD, 12 week, read-out: Trough Plasma Concentrations, Mean (SD)): 312 ng/mL
- concentration at 12 week ([2]; 150 mg, 150 mg QD, 12 week, read-out: Trough Plasma Concentrations, Median): 246 ng/mL
- concentration at 2 week ([2]; 200 mg, 200 mg QD, 2 week, BLQ (<2.00 ng/mL) set to 0, read-out: Trough Plasma Concentrations, Min-Max): 5.01 to 2210 ng/mL
- concentration at 2 week ([2]; 200 mg, 200 mg QD, 2 week, read-out: Trough Plasma Concentrations, Mean (SD)): 521 ng/mL
- concentration at 2 week ([2]; 200 mg, 200 mg QD, 2 week, read-out: Trough Plasma Concentrations, Median): 436 ng/mL
- concentration at 4 week ([2]; 200 mg, 200 mg QD, 4 week, BLQ (<2.00 ng/mL) set to 0, read-out: Trough Plasma Concentrations, Min-Max): 0 to 1570 ng/mL
- concentration at 4 week ([2]; 200 mg, 200 mg QD, 4 week, read-out: Trough Plasma Concentrations, Mean (SD)): 450 ng/mL
- concentration at 4 week ([2]; 200 mg, 200 mg QD, 4 week, read-out: Trough Plasma Concentrations, Median): 402 ng/mL
- concentration at 8 week ([2]; 200 mg, 200 mg QD, 8 week, BLQ (<2.00 ng/mL) set to 0, read-out: Trough Plasma Concentrations, Min-Max): 0 to 1660 ng/mL
- concentration at 8 week ([2]; 200 mg, 200 mg QD, 8 week, read-out: Trough Plasma Concentrations, Mean (SD)): 402 ng/mL
- concentration at 8 week ([2]; 200 mg, 200 mg QD, 8 week, read-out: Trough Plasma Concentrations, Median): 392 ng/mL
- concentration at 12 week ([2]; 200 mg, 200 mg QD, 12 week, BLQ (<2.00 ng/mL) set to 0, read-out: Trough Plasma Concentrations, Min-Max): 0 to 1170 ng/mL
- concentration at 12 week ([2]; 200 mg, 200 mg QD, 12 week, read-out: Trough Plasma Concentrations, Mean (SD)): 354 ng/mL
- concentration at 12 week ([2]; 200 mg, 200 mg QD, 12 week, read-out: Trough Plasma Concentrations, Median): 323 ng/mL
- dose from which significant effects were observed (mechanical threshold) ([3]; at 6 hours after NGF injection, oral): ≥ 3 mg/kg
- effect on the decrease in the mechanical thresholds induced by NGF ([3]; compared with the vehicle, 1, 3, 10 mg/kg oral, dose related): prevented the decrease in the mechanical thresholds induced by NGF
